Data on 24 molecules can be found in patent publication US9688702B2, “Alpha-amino boronic acid derivatives, selective immunoproteasome inhibitors” (Ares Trading S.A, priority 2011, dated 2017).

Where only a bound is given, the exact number is not on record here.

As usually defined, the IC50 is the concentration at which inhibition is half-maximal. Higher therefore signals weaker potency.

Experiment [1] has as its target LMP7 (purified human immuno proteasome) (Homo sapiens, UniProt P28062). Kind of experiment: Determination of LMP7 activity (fluorescence intensity assay, Suc-LLVY-AMC). In kind it is biochemical. Conditions: for IC50: 40 μM Suc-LLVY-AMC, 37° C. An outline of the steps:
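Purified human immunoproteasome (0.5 nM or 0.25 nM) preincubated 30 min at 37 °C with compounds (10 μM to 38 pM) in 50 mM Tris pH 7.4, 0.03% SDS. Suc-LLVY-AMC added at 40 μM; after 90 min at 37 °C, fluorescence read at ex 350/em 450 nm.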

Experiment [2] deals with Beta5 (purified human constitutive proteasome) (Homo sapiens, UniProt P28074). Kind of experiment: Determination of Beta5 activity (fluorescence intensity assay, Suc-LLVY-AMC). In kind it is biochemical. Conditions: purified human constitutive proteasome 1.0 nM, 40 μM Suc-LLVY-AMC, 37° C. An outline of the steps:
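Purified human constitutive proteasome (1.0 nM) was preincubated 30 min at 37 °C with compounds (10 μM to 38 pM) in 50 mM Tris pH 7.4, 0.03% SDS. Suc-LLVY-AMC (40 μM) was then added and fluorescence (ex 350/em 450 nm) read after 90 min at 37 °C.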

The mark [3] stands for this setting: purified human immuno proteasome 0.5 nM.
Setting [4] is: purified human immuno proteasome 0.25 nM (examples 79, 80, 83, 84, 85, 87, 88, 89, 90, 91, 93, 94, 96, 97, 101 and 110).

For `Cc1nc2ccccc2n1CCC(=O)N[C@@H](Cc1ccsc1)B(O)O` [Example 55, (R)-(1-(3-(2-methyl-1H-benzo[d]imidazol-1-yl)propanamido)-2-(thiophen-3-yl)ethyl)boronic acid], the “Selectivity LMP7 vs Beta5” value in experiment [1] was “+ (+: Selectivity < 10)”. For the same molecule, the concentration for half-maximal inhibition (IC50) is less than 50 nM in experiment [1] (setting [3]) and 50 to 500 nM in experiment [2].

As for `COc1ccc(C[C@H](NC(=O)CCc2noc(-c3ccccc3)n2)B(O)O)cc1C(F)(F)F` [Example 56, (R)-(2-(4-methoxy-3-(trifluoromethyl)phenyl)-1-(3-(5-phenyl-1,2,4-oxadiazol-3-yl)propanamido)ethyl)boronic acid], the “Selectivity LMP7 vs Beta5” value in experiment [1] was “++ (++: 10 < Selectivity < 30)”. The IC50 in experiment [1] (setting [3]) lay within 50 to 500 nM; in experiment [2] it was 500 to 5000 nM.

Take `COc1cc(F)cc(C[C@H](NC(=O)CCn2cnc3ccccc32)B(O)O)c1` [Example 57, (R)-(1-(3-(1H-benzo[d]imidazol-1-yl)propanamido)-2-(3-fluoro-5-methoxyphenyl)ethyl)boronic acid]: in experiment [1], the “Selectivity LMP7 vs Beta5” value is given as “++ (++: 10 < Selectivity < 30)”. Also, the figures for the IC50 in experiment [1] (setting [3]) and in experiment [2] were less than 50 nM and 50 to 500 nM, respectively.

Consider `CCc1cccc(C[C@H](NC(=O)CCc2cn(-c3ccccc3)nn2)B(O)O)c1` [Example 58, (R)-(2-(3-ethylphenyl)-1-(3-(1-phenyl-1H-1,2,3-triazol-4-yl)propanamido)ethyl)boronic acid], for which, in experiment [1], the “Selectivity LMP7 vs Beta5” value is listed as “+++ (+++: Selectivity > 30)”. Also, the 50% inhibitory concentration (IC50) is 50 to 500 nM in experiment [1] (setting [3]) and more than 5000 nM in experiment [2].

Consider `O=C(CCn1cnc2ccccc21)N[C@@H](Cc1cccc(OC(F)(F)F)c1)B(O)O` [Example 59, (R)-(1-(3-(1H-benzo[d]imidazol-1-yl)propanamido)-2-(3-(trifluoromethoxy)phenyl)ethyl)boronic acid], for which the “Selectivity LMP7 vs Beta5” value in experiment [1] is reported as “+ (+: Selectivity < 10)”. Also, the IC50 was less than 50 nM in experiment [1] (setting [3]) and 50 to 500 nM in experiment [2].

In the case of `O=C(CCc1noc(-c2ccccc2)n1)N[C@@H](Cc1cccc(OC(F)(F)F)c1)B(O)O` [Example 60, (R)-(1-(3-(5-phenyl-1,2,4-oxadiazol-3-yl)propanamido)-2-(3-(trifluoromethoxy)phenyl)ethyl)boronic acid], the “Selectivity LMP7 vs Beta5” value in experiment [1] is given as “++ (++: 10 < Selectivity < 30)”. In addition, the IC50 is 50 to 500 nM in experiment [1] (setting [3]) and 500 to 5000 nM in experiment [2].

Take `COc1cc(F)cc(C[C@H](NC(=O)CCc2noc(-c3ccccc3)n2)B(O)O)c1` [Example 61, (R)-(2-(3-fluoro-5-methoxyphenyl)-1-(3-(5-phenyl-1,2,4-oxadiazol-3-yl)propanamido)ethyl)boronic acid]: the “Selectivity LMP7 vs Beta5” value in experiment [1] is on record as “+++ (+++: Selectivity > 30)”. Moreover, the IC50 in experiment [1] (setting [3]) is less than 50 nM; in experiment [2], 500 to 5000 nM.

In the case of `O=C(N[C@@H](Cc1ccsc1)B(O)O)[C@H](Cc1ccccc1)Cc1cn(-c2ccccc2)nn1` [Example 62, ((R)-1-((R)-2-benzyl-3-(1-phenyl-1H-1,2,3-triazol-4-yl)propanamido)-2-(thiophen-3-yl)ethyl)boronic acid], the “Selectivity LMP7 vs Beta5” value in experiment [1] is on record as “++ (++: 10 < Selectivity < 30)”. The IC50 in experiment [1] (setting [3]) was less than 50 nM; in experiment [2] it was 50 to 500 nM.

On to `O=C(N[C@@H](Cc1ccsc1)B(O)O)[C@@H](Cc1ccccc1)Cc1cn(-c2ccccc2)nn1` [Example 63, ((R)-1-((S)-2-benzyl-3-(1-phenyl-1H-1,2,3-triazol-4-yl)propanamido)-2-(thiophen-3-yl)ethyl)boronic acid], for which, in experiment [1], the “Selectivity LMP7 vs Beta5” value is on record as “++ (++: 10 < Selectivity < 30)”. The IC50 in experiment [1] (setting [3]) and in experiment [2] was less than 50 nM each time.

In the case of `O=C(CCn1cnc2ccccc21)N[C@@H](Cc1ccc(F)c(C(F)(F)F)c1)B(O)O` [Example 64, (R)-(1-(3-(1H-benzo[d]imidazol-1-yl)propanamido)-2-(4-fluoro-3-(trifluoromethyl)phenyl)ethyl)boronic acid], the “Selectivity LMP7 vs Beta5” value in experiment [1] was “++ (++: 10 < Selectivity < 30)”. The IC50 was less than 50 nM in experiment [1] (setting [3]) and 50 to 500 nM in experiment [2].

For the molecule `COc1cc(F)cc(C[C@H](NC(=O)CCn2cc(-c3ccccc3)nn2)B(O)O)c1` [Example 65, (R)-(2-(3-fluoro-5-methoxyphenyl)-1-(3-(4-phenyl-1H-1,2,3-triazol-1-yl)propanamido)ethyl)boronic acid], the “Selectivity LMP7 vs Beta5” value in experiment [1] is recorded as “++ (++: 10 < Selectivity < 30)”. The figures for the IC50 in experiment [1] (setting [3]) and in experiment [2] were less than 50 nM and 50 to 500 nM, respectively.

With `CCOc1cccc(C[C@H](NC(=O)CCn2cnc3ccccc32)B(O)O)c1` [Example 67, (R)-(1-(3-(1H-benzo[d]imidazol-1-yl)propanamido)-2-(3-ethoxyphenyl)ethyl)boronic acid], the “Selectivity LMP7 vs Beta5” value in experiment [1] is on record as “++ (++: 10 < Selectivity < 30)”. The IC50 is less than 50 nM in experiment [1] (setting [3]) and 50 to 500 nM in experiment [2].

As for `CCOc1cccc(C[C@H](NC(=O)CCc2noc(-c3ccccc3)n2)B(O)O)c1` [Example 68, (R)-(2-(3-ethoxyphenyl)-1-(3-(5-phenyl-1,2,4-oxadiazol-3-yl)propanamido)ethyl)boronic acid], the “Selectivity LMP7 vs Beta5” value in experiment [1] is given as “+++ (+++: Selectivity > 30)”. The IC50 in experiment [1] (setting [3]) was less than 50 nM; in experiment [2] it was 500 to 5000 nM.

For `COc1cc(C[C@H](NC(=O)CCn2cnc3ccccc32)B(O)O)ccc1F` [Example 69, (R)-(1-(3-(1H-benzo[d]imidazol-1-yl)propanamido)-2-(4-fluoro-3-methoxyphenyl)ethyl)boronic acid], the “Selectivity LMP7 vs Beta5” value in experiment [1] is “+ (+: Selectivity < 10)”. In addition, the IC50 in experiment [1] (setting [3]) was 50 to 500 nM; in experiment [2] it was 500 to 5000 nM.

Regarding `CCOc1cccc(CC(NC(=O)CCn2cc(-c3ccccc3)nn2)B(O)O)c1` (stereo not drawn) [Example 70, (2-(3-ethoxyphenyl)-1-(3-(4-phenyl-1H-1,2,3-triazol-1-yl)propanamido)ethyl)boronic acid], in experiment [1], the “Selectivity LMP7 vs Beta5” value is listed as “++ (++: 10 < Selectivity < 30)”. The IC50 is less than 50 nM in experiment [1] (setting [3]) and 50 to 500 nM in experiment [2].

With `O=C(CCn1cc(-c2ccccc2)nn1)N[C@@H](Cc1ccc(F)c(C(F)(F)F)c1)B(O)O` [Example 71, (R)-(2-(4-fluoro-3-(trifluoromethyl)phenyl)-1-(3-(4-phenyl-1H-1,2,3-triazol-1-yl)propanamido)ethyl)boronic acid], in experiment [1], the “Selectivity LMP7 vs Beta5” value is recorded as “++ (++: 10 < Selectivity < 30)”. Further, the 50% inhibitory concentration (IC50) is less than 50 nM in experiment [1] (setting [3]) and 50 to 500 nM in experiment [2].

Turning to `COc1cc(C[C@H](NC(=O)CCn2cnc3ccccc32)B(O)O)ccc1C` [Example 72, (R)-(1-(3-(1H-benzo[d]imidazol-1-yl)propanamido)-2-(3-methoxy-4-methylphenyl)ethyl)boronic acid], in experiment [1], the “Selectivity LMP7 vs Beta5” value is reported as “++ (++: 10 < Selectivity < 30)”. The IC50 was 50 to 500 nM in experiment [1] (setting [3]) and 500 to 5000 nM in experiment [2].

With `CCc1cccc(C[C@H](NC(=O)CCn2cc(-c3ccccc3OC)nn2)B(O)O)c1` [Example 73, (R)-(2-(3-ethylphenyl)-1-(3-(4-(2-methoxyphenyl)-1H-1,2,3-triazol-1-yl)propanamido)ethyl)boronic acid], the “Selectivity LMP7 vs Beta5” value in experiment [1] is recorded as “+++ (+++: Selectivity > 30)”. The IC50 in experiment [1] (setting [3]) is less than 50 nM; in experiment [2], 50 to 500 nM.

As for `CCc1cccc(C[C@H](NC(=O)CCn2cc(-c3cccc(OC)c3)nn2)B(O)O)c1` [Example 74, (R)-(2-(3-ethylphenyl)-1-(3-(4-(3-methoxyphenyl)-1H-1,2,3-triazol-1-yl)propanamido)ethyl)boronic acid], the “Selectivity LMP7 vs Beta5” value in experiment [1] is recorded as “+++ (+++: Selectivity > 30)”. Besides, the IC50 in experiment [1] (setting [3]) was less than 50 nM; in experiment [2], 50 to 500 nM.

Consider `CCc1cccc(C[C@H](NC(=O)CCn2cc(-c3ccc(OC)cc3)nn2)B(O)O)c1` [Example 75, (R)-(2-(3-ethylphenyl)-1-(3-(4-(4-methoxyphenyl)-1H-1,2,3-triazol-1-yl)propanamido)ethyl)boronic acid], for which the “Selectivity LMP7 vs Beta5” value in experiment [1] is given as “+++ (+++: Selectivity > 30)”. Moreover, the values for the IC50 in experiment [1] (setting [3]) and in experiment [2] were less than 50 nM and 50 to 500 nM, respectively.

In the case of `CCc1cccc(C[C@H](NC(=O)CCn2cc(-c3cccnc3)nn2)B(O)O)c1` [Example 76, (R)-(2-(3-ethylphenyl)-1-(3-(4-(pyridin-3-yl)-1H-1,2,3-triazol-1-yl)propanamido)ethyl)boronic acid], the “Selectivity LMP7 vs Beta5” value in experiment [1] was “+++ (+++: Selectivity > 30)”. Moreover, the IC50 in experiment [1] (setting [3]) was less than 50 nM; in experiment [2], 500 to 5000 nM.

Consider `CC(=O)N[C@@H](Cc1coc2ccccc12)B(O)O` [Example 78, (R)-(1-acetamido-2-(benzofuran-3-yl)ethyl)boronic acid], for which, in experiment [1], the “Selectivity LMP7 vs Beta5” value is given as “+++ (+++: Selectivity > 30)”. Also, the IC50 is less than 50 nM in experiment [1] (setting [3]) and 500 to 5000 nM in experiment [2].

On to `COc1ccc(CCC(=O)N[C@@H](Cc2coc3ccccc23)B(O)O)cc1` [Example 79, (R)-(2-(benzofuran-3-yl)-1-(3-(4-methoxyphenyl)propanamido)ethyl) boronic acid], for which, in experiment [1], the “Selectivity LMP7 vs Beta5” value is listed as “+++ (+++: Selectivity > 30)”. Also, the results for the IC50 in experiment [1] (setting [4]) and in experiment [2] were less than 50 nM and 50 to 500 nM, respectively.

With `O=C(CCc1ccc(F)cc1)N[C@@H](Cc1coc2ccccc12)B(O)O` [Example 80, (R)-(2-(benzofuran-3-yl)-1-(3-(4-fluorophenyl)propanamido)ethyl) boronic acid], the “Selectivity LMP7 vs Beta5” value in experiment [1] was “+++ (+++: Selectivity > 30)”. In addition, the IC50 in experiment [1] (setting [4]) and in experiment [2] was less than 50 nM in each case.
